From publication PMC4370448, “Advanced Enzymology, Expression Profile and Immune Response of Clonorchis sinensis Hexokinase Show Its Application Potential for Prevention and Control of Clonorchiasis” (PLoS Neglected Tropical Diseases, 2015)

Columns and labels:
rCsHK [1] = target: T1, rCsHK (Clonorchis sinensis, UniProt G7YJ23); assay: G6PD-coupled NADPH formation at […] nm, Hill fit; format: biochemical; details: 3 mM glucose, 15 mM MgCl2, pH 8.5
T1 construct: gene CLF_109217
T1 sequence (G7YJ23 1-449): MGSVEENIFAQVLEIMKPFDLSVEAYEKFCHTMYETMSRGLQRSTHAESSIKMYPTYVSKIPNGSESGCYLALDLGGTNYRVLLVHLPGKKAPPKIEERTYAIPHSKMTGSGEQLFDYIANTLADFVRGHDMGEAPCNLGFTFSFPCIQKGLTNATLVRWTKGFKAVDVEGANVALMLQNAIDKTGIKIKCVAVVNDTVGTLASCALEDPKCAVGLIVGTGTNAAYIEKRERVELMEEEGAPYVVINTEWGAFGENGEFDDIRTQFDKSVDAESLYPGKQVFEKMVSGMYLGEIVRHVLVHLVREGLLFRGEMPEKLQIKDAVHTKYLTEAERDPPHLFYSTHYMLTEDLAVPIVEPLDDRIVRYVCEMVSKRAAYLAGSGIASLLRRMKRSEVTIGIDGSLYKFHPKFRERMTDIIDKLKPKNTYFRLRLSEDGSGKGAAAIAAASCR

rCsHK [2] = target: T1, rCsHK; assay: G6PD-coupled NADPH formation at […] nm; format: biochemical; details: read-out: % inhibition at 10 mM

Nc1ncnc2c1ncn2[C@@H]1O[C@H](COP(=O)(O)O)[C@@H](O)[C@H]1O [AMP]
G6PD-coupled NADPH formation at 340 nm, Hill fit (rCsHK [1]; 0-5 mM, allosteric activator, mixed K+V+ with respect to ATP): AMP exhibited a mixed allosteric K+V+ effect

Nc1ncnc2c1ncn2[C@@H]1O[C@H](COP(=O)(O)OP(=O)(O)OP(=O)(O)O)[C@@H](O)[C@H]1O [ATP]
inhibition at 10000 µM (rCsHK [2]): 13.8%

Nc1ccn([C@@H]2O[C@H](COP(=O)(O)OP(=O)(O)OP(=O)(O)O)[C@@H](O)[C@H]2O)c(=O)n1 [CTP]
inhibition at 10000 µM (rCsHK [2]): 8.6%

C=C(OP(=O)(O)O)C(=O)O [PEP]
G6PD-coupled NADPH formation at 340 nm, Hill fit (rCsHK [1]; 0-10 mM, allosteric activator, mixed K+V+ with respect to ATP): PEP displayed allosteric activation of rCsHK with respect to ATP

Cc1cn([C@H]2C[C@H](O)[C@@H](COP(=O)(O)OP(=O)(O)OP(=O)(O)O)O2)c(=O)[nH]c1=O [TTP]
inhibition at 10000 µM (rCsHK [2]): 14.3%

O=C(O)CC(O)(CC(=O)O)C(=O)O [citrate]
G6PD-coupled NADPH formation at 340 nm, Hill fit (rCsHK [1]; 0-10 mM, allosteric, K+V+ activator at 5 and 10 mM, net inhibition (K-V+) at 2 mM, with respect to ATP): Citrate exhibited an unusual mixed allosteric effect on rCsHK with respect to ATP
